# According to patent US11667616B2, “Oral GSNOR inhibitor and pharmaceutical use thereof” (NANJING MEDICAL UNIVERSITY, priority 2020, dated 2023):
# What was measured:
# [1] = Pharmacokinetic study, plasma concentration by LC-MS/MS; type: in vivo, ICR mice; details: ICR, mouse; for half-life: read-out: drug half-life period (converted)
# Description: Then, the plasma concentration was detected by LC-MS/MS at hour 0.083, 0.25, 0.5, 1, 2, 4, 8 and 24 respectively (FIG. 5).
# HUVECs [2] = experiment: Endothelial cell tube formation under high glucose; type: cell-based, Human; details: high glucose 30 mM, 10 nM, 24 h
# Description: It is known that in the diabetic vascular complications, decreased angiogenesis and increased vascular endothelial permeability are among the risk factors causing local edema, ischemia followed by ulcer and amputation.
# (§1) FIG. 3A, FIG. 3B and FIG. 3C show study of the in-vitro activity of the subject compound 1 against diabetic vascular complications.
# [3] = system: human aortic smooth muscle cells (HASMCs); experiment: Contractile/synthetic marker expression in angiotensin II-treated smooth muscle cells; type: cell-based; details: angiotensin II 1 μM, 10 nM, 24 hours
# Description: Then, cellular RNA were extracted to detect contractile/synthetic markers of smooth muscle cells.
# GSNOR = biological target: T1, GSNOR (Homo sapiens, UniProt P11766); experiment: GSNOR activity in lysate of treated HUVECs (NADH consumption at 340 nm); type: cell-based; details: for activities in in-vitro studies: relative to N6022
# T1 construct: the cell lysate supernatants were treated with a substrate GSNO and a coenzyme NADH; endogenous in cells; host or cells: HUVEC (human umbilical vein endothelial cells)
# Description: GSNOR plays a crucial regulatory role in asthma and cystic fibrosis.
# [4] = system: C57BL/6J mice with β-aminopropionitrile-induced aortic aneurysm/dissection; experiment: β-aminopropionitrile-induced aortic aneurysm/dissection model; type: in vivo
# [5] = system: diabetic C57BL/6J mice with lateral limb ischemia; experiment: Streptozotocin diabetes + lateral limb ischemia model; type: in vivo
# Experimental: To generate diabetes model, mice at week 8 were intraperitoneally injected with streptozotocin (60 mg/kg/day) for consecutive 5 days, then the modeling was identified as a success if the blood glucose was measured to be greater than 16.6 mmol/L at week 10. […] The gastrocnemius muscles of the ischemic lateral limbs of the mice were isolated for frozen section, and immunofluorescence (platelet-endothelial cell adhesion molecule, CD31) was used to detect the angiogenesis (FIG. 6B); and the semimembranosus muscles were isolated for frozen section, and immunofluorescence (α-smooth muscle actin, α-SMA) was used to detect the arteriogenesis (FIG. 6B).
# HUVECs [6] = experiment: Endothelial cell sphere sprouting under high glucose; type: cell-based, Human; details: high glucose 30 mM, 10 nM, 24 h
# Description: as §1
# HUVECs [7] = experiment: Endothelial cell permeability under high glucose; type: cell-based, Human; details: high glucose 30 mM, 10 nM, 24 h
# Description: as §1
# [8] = gavage 6 mg/kg/day vs N6022 iv 1 mg/kg/day, N6022-1 gavage 5.6 mg/kg/day, N6022-2 gavage 5.3 mg/kg/day
# [9] = gavage 6 mg/kg/day, β-aminopropionitrile drinking water 28 days
# T1 sequence (P11766 whole entry): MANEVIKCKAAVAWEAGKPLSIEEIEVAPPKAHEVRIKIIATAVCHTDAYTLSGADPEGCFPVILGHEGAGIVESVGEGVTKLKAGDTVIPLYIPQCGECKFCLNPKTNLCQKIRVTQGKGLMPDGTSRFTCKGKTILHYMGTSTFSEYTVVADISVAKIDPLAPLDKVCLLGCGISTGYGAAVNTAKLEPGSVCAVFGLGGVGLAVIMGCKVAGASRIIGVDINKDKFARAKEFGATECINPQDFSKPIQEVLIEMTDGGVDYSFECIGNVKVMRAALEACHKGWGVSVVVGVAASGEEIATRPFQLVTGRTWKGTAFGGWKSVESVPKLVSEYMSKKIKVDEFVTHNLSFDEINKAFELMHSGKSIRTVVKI
activities in in-vitro studies (GSNOR),Compound,half-life [1],angiogenesis ability of endothelial cells (tube formation) (HUVECs [2]),"decrease in the expression of the contractile markers (actin α2, calmodulin 1, transgelin) due to angiotensin II [3]","increase in the expression of the synthetic markers (osteopontin, Kruppel-like factor 4, Kruppel-like factor 5) due to angiotensin II [3]",bioavailability ([1]; po),"effect on aortic aneurysm/dissection compared with controls [4, 8]","expansion of the aortic diameter [4, 9]","mortality rate of the mice [4, 9]","angiogenesis of the ischemic lateral limbs of the diabetic mice (CD31, α-SMA) ([5]; gavage 6 mg/kg/day after operation)","effect on diabetic limb ischemia compared with controls [5, 8]","blood flow recovery of the lateral limbs (laser speckle imaging) ([5]; gavage 6 mg/kg/day, day 0, 7 and 14)",sprouting ability of the endothelial cells (HUVECs [6]),permeability of the endothelial cells (HUVECs [7]),"inhibitory effect on the GSNOR activity (GSNOR; 10 nM, 24 hours, HUVECs, lysate + GSNO + NADH)"
,"Cc1cc(C(N)=O)ccc1-n1c(CCC(=O)O)ccc1-c1ccc(-n2ccnc2)cc1 [N6022, 3-(5-(4-(1H-imidazol-1-yl)phenyl)-1-(4-carbamoyl-2-methylphenyl)-1H-pyrrol-2-yl) propanoic acid, reference compound]",0.76 ± 0.15 h,obviously improve,obviously inhibit,obviously inhibit,,,,,,,,,,
significantly reduced,Cc1cc(C(N)=O)ccc1-n1c(CCC(N)=O)ccc1-c1ccc(-n2ccnc2)cc1 [N6022-1],,,,,,,,,,,,,,
significantly reduced,CCOC(=O)CCc1ccc(-c2ccc(-n3ccnc3)cc2)n1-c1ccc(C(N)=O)cc1C [N6022-2],,,,,,,,,,,,,,

Compound,activities in in-vitro studies (GSNOR),half-life [1],angiogenesis ability of endothelial cells (tube formation) (HUVECs [2]),"decrease in the expression of the contractile markers (actin α2, calmodulin 1, transgelin) due to angiotensin II [3]","increase in the expression of the synthetic markers (osteopontin, Kruppel-like factor 4, Kruppel-like factor 5) due to angiotensin II [3]",bioavailability ([1]; po),"effect on aortic aneurysm/dissection compared with controls [4, 8]","expansion of the aortic diameter [4, 9]","mortality rate of the mice [4, 9]","angiogenesis of the ischemic lateral limbs of the diabetic mice (CD31, α-SMA) ([5]; gavage 6 mg/kg/day after operation)","effect on diabetic limb ischemia compared with controls [5, 8]","blood flow recovery of the lateral limbs (laser speckle imaging) ([5]; gavage 6 mg/kg/day, day 0, 7 and 14)",sprouting ability of the endothelial cells (HUVECs [6]),permeability of the endothelial cells (HUVECs [7]),"inhibitory effect on the GSNOR activity (GSNOR; 10 nM, 24 hours, HUVECs, lysate + GSNO + NADH)"
"Cc1cc(C(N)=O)ccc1-n1c(CCC(=O)N2CCSC2=O)ccc1-c1ccc(-n2ccnc2)cc1 [subject compound 1, s4-(2-(4-(1H-imidazol-1-yl)phenyl)-5-(3-oxo-3-(2-oxothiazolidin-3-yl)propyl)-1H-pyrrol-1-yl)-3-methylbenzamide]",good activity in vitro,1.62 ± 0.81 h,obviously improve,obviously inhibit,obviously inhibit,60.1 ± 7.91%,equivalent effect to the group intravenously injected with N6022,inhibited,inhibited,obviously promote,equivalent effect to the group intravenously injected with N6022,restore blood flow,improve sprouting ability,modify the permeability,equivalent to N6022
